{"source": "ChEMBL document CHEMBL3108691", "about": "“Structural investigation of cycloheptathiophene-3-carboxamide derivatives targeting influenza virus polymerase assembly” (J Med Chem, 2013)", "system": "Influenza A virus", "format": "functional, organism-based, Influenza A virus (A/Parma/24/2009(H1N1))", "details": "MDCK, 48 h", "data": [{"smiles": "NC(=O)c1ncn([C@@H]2O[C@H](CO)[C@@H](O)[C@H]2O)n1", "note": "[RIBAVIRIN]", "values": [{"measurement": "EC50", "value": 17, "unit": "µM"}]}]}
